Laboratory results from publication PMC6616570, “Discovery of novel oestrogen receptor α agonists and antagonists by screening a revisited privileged structure moiety for nuclear receptors” (Scientific Reports, 2019).

How the values were obtained:
[1] = target: T1, ERα (Homo sapiens, UniProt P03372); experiment: Luciferase-reporter assay for agonist activity in transiently transfected HeLa cells; type: cell-based; conditions: reporter-gene assay, 0.1-10 μM
T1 construct: expressed in transfected cells; host or cells: HeLa cells
T1 sequence (P03372 1-595): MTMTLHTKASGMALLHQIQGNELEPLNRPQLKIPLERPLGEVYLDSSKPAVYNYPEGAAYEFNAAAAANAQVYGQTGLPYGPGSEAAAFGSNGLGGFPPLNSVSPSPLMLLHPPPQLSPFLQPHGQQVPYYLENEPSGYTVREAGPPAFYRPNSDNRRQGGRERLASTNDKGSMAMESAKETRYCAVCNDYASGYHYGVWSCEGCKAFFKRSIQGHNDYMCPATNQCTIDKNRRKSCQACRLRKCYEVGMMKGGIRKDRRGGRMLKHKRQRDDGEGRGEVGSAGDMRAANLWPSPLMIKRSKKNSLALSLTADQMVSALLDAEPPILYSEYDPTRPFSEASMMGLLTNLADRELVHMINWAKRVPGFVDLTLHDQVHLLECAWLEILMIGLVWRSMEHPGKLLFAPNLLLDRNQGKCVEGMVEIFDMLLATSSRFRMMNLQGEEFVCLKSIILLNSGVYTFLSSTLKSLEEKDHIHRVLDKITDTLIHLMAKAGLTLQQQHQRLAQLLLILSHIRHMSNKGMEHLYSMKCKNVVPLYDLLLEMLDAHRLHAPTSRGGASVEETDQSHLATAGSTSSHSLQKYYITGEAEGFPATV
Description: HeLa cells were maintained in Eagle’s minimum essential medium (MEM; Nissui Pharmaceutical Co., Ltd, Tokyo, Japan) supplemented with 10% (v/v) foetal bovine serum treated with dextran-coated charcoal at 37 °C under 5% CO2. To analyse the agonist activity, HeLa cells were incubated at a density of 5 × 10^5 cells per 60-mm dish for 24 h, followed by transfection of 3 μg of the reporter plasmid (3 × ERE/pGL4.23) and 1 μg of the ERα expression plasmid (ERα/pcDNA3.1) using Lipofectamine LTX reagent (Thermo Fisher Scientific, Waltham, MA, USA) according to the manufacturer’s instructions. After 24 h, cells were harvested, suspended in Eagle’s MEM, and seeded into 96-well plates at 5 × 10^4 cells/well, followed by treatment with a series of the test compounds diluted with 1% bovine serum albumin (BSA)/PBS (v/v) to prepare different concentrations (0–10 μM). After a 24-h incubation, luciferase activity was measured using a Luciferase Assay system (Promega, Madison, WI, USA) according to the manufacturer’s instructions. […] Cells treated only with 1% BSA/PBS were used as a vehicle control. Each assay was performed in triplicate and repeated at least three times.

[2] = tested on: oestrogen receptors (ERs); conditions: cited from earlier work
[3] = tested on: adult male mouse offspring; conditions: in utero exposure to 2 μg/kg/day or 20 μg/kg/day; cited from earlier work

## CC(C)(c1ccc(O)cc1)c1ccc(O)cc1 [compound 21, bisphenol A]
[1]
  ERα agonist / transcriptional activity (in words): apparent agonistic activity
[2]
  affinity for ERs weaker than 17β-oestradiol (E2): > 1,000 fold
[3]
  effect on prostate in adult male offspring (in words): increases prostate size and weight
